According to publication PMC5218480 (PLoS ONE, 2017):

Test system: MV-4-11 cells
Assay: Gene expression microarray analysis (Affymetrix PrimeView) and GSEA
Type: cell-based, human
Parameters: RFU PODN (11730768_x_at) / Fold change /veh PODN (11730768_x_at) / RFU LINC00158 (11744669_a_at) / Fold change /veh LINC00158 (11744669_a_at) / RFU DUSP10 (11751237_a_at) / Fold change /veh DUSP10 (11751237_a_at) / RFU ID3 (11757404_x_at) / Fold change /veh ID3 (11757404_x_at) / RFU PLEKHG5 (11737974_s_at) / Fold change /veh PLEKHG5 (11737974_s_at) / RFU LRRC4B (11730491_at) / Fold change /veh LRRC4B (11730491_at) / RFU GIMAP4 (11747438_a_at) / Fold change /veh GIMAP4 (11747438_a_at) / RFU KRT8 (11758183_x_at) / Fold change /veh KRT8 (11758183_x_at) / RFU CNN1 (11734310_a_at) / Fold change /veh CNN1 (11734310_a_at) / RFU VPS37D (11726825_at) / Fold change /veh VPS37D (11726825_at) / RFU C10orf10 (11716522_x_at) / Fold change /veh C10orf10 (11716522_x_at) / RFU KIR2DL2 /// KIR2DL4 /// KIR2DL5A /// KIR2DL5B /// KIR2DS1 /// KIR2DS2 /// KIR2DS3 /// KIR2DS4 /// KIR3DL3 /// KIR3DL3 /// KIR3DS1 (11738374_at) / Fold change /veh KIR2DL2 /// KIR2DL4 /// KIR2DL5A /// KIR2DL5B /// KIR2DS1 /// KIR2DS2 /// KIR2DS3 /// KIR2DS4 /// KIR3DL3 /// KIR3DL3 /// KIR3DS1 (11738374_at) / RFU C1QL1 (11718748_at) / Fold change /veh C1QL1 (11718748_at) / RFU TMPRSS4 (11747572_a_at) / Fold change /veh TMPRSS4 (11747572_a_at) / RFU HAMP (11756126_x_at) / Fold change /veh HAMP (11756126_x_at) / RFU RNFT2 (11725882_a_at) / Fold change /veh RNFT2 (11725882_a_at) / RFU NR4A2 (11747474_a_at) / Fold change /veh NR4A2 (11747474_a_at) / RFU ABCC12 (11746883_a_at) / Fold change /veh ABCC12 (11746883_a_at) / RFU TMEM136 (11760407_x_at) / Fold change /veh TMEM136 (11760407_x_at) / RFU CLDN22 /// WWC2 (11732394_at) / Fold change /veh CLDN22 /// WWC2 (11732394_at) / RFU HLA-DPB1 (11760878_x_at) / Fold change /veh HLA-DPB1 (11760878_x_at) / RFU SPINT1 (11716480_a_at) / Fold change /veh SPINT1 (11716480_a_at) / RFU GAP43 (11754022_s_at) / Fold change /veh GAP43 (11754022_s_at) / RFU A4GNT (11735810_at) / Fold change /veh A4GNT (11735810_at) / RFU PRB3 (11715151_x_at) / Fold change /veh PRB3 (11715151_x_at) / RFU TUBB4B (11761932_at) / Fold change /veh TUBB4B (11761932_at) / RFU CAPN14 (11732068_a_at) / Fold change /veh CAPN14 (11732068_a_at) / RFU TMCC2 (11721928_a_at) / Fold change /veh TMCC2 (11721928_a_at) / RFU IRGQ (11745062_a_at) / Fold change /veh IRGQ (11745062_a_at) / RFU FAM174B (11720279_a_at) / Fold change /veh FAM174B (11720279_a_at) / RFU TMPRSS4 (11748680_a_at) / Fold change /veh TMPRSS4 (11748680_a_at) / RFU FAM212B (11763350_a_at) / Fold change /veh FAM212B (11763350_a_at) / RFU PLEKHG5 (11743358_a_at) / Fold change /veh PLEKHG5 (11743358_a_at) / RFU ZSCAN30 (11745921_a_at) / Fold change /veh ZSCAN30 (11745921_a_at) / RFU CMKLR1 (11741424_a_at) / Fold change /veh CMKLR1 (11741424_a_at) / RFU LOC101060620 /// MAPK8IP1 (11723275_at) / Fold change /veh LOC101060620 /// MAPK8IP1 (11723275_at) / RFU SPTSSB (11747773_x_at) / Fold change /veh SPTSSB (11747773_x_at) / RFU PRSS12 (11739890_at) / Fold change /veh PRSS12 (11739890_at) / RFU BIN1 (11741810_x_at) / Fold change /veh BIN1 (11741810_x_at) / RFU WNT11 (11732464_a_at) / Fold change /veh WNT11 (11732464_a_at) / RFU C10orf10 (11716521_a_at) / Fold change /veh C10orf10 (11716521_a_at) / RFU C5orf56 (11738089_at) / Fold change /veh C5orf56 (11738089_at) / RFU CYB561 (11721691_x_at) / Fold change /veh CYB561 (11721691_x_at) / RFU ANKRD19P (11752326_a_at) / Fold change /veh ANKRD19P (11752326_a_at) / RFU OR2T12 /// OR2T33 /// OR2T8 (11738714_s_at) / Fold change /veh OR2T12 /// OR2T33 /// OR2T8 (11738714_s_at) / RFU VCAN (11748164_a_at) / Fold change /veh VCAN (11748164_a_at) / RFU JSRP1 (11732532_at) / Fold change /veh JSRP1 (11732532_at) / RFU KRTAP10-11 (11738290_x_at) / Fold change /veh KRTAP10-11 (11738290_x_at) / RFU MYO3A (11730013_a_at) / Fold change /veh MYO3A (11730013_a_at) / RFU EBF3 (11725865_a_at) / Fold change /veh EBF3 (11725865_a_at) / RFU CAMK2N1 (11719241_x_at) / Fold change /veh CAMK2N1 (11719241_x_at) / RFU C5orf56 (11738088_a_at) / Fold change /veh C5orf56 (11738088_a_at) / RFU OLFML3 (11715873_a_at) / Fold change /veh OLFML3 (11715873_a_at) / RFU LOC100653217 /// NTM (11731650_a_at) / Fold change /veh LOC100653217 /// NTM (11731650_a_at) / RFU MAPK11 (11762145_a_at) / Fold change /veh MAPK11 (11762145_a_at) / RFU FIZ1 (11724087_x_at) / Fold change /veh FIZ1 (11724087_x_at) / RFU OASL (11726364_x_at) / Fold change /veh OASL (11726364_x_at) / RFU SOX15 (11748057_x_at) / Fold change /veh SOX15 (11748057_x_at) / RFU CD79A (11719716_a_at) / Fold change /veh CD79A (11719716_a_at) / RFU HIST1H1D (11736915_at) / Fold change /veh HIST1H1D (11736915_at) / RFU CASKIN2 (11723855_a_at) / Fold change /veh CASKIN2 (11723855_a_at) / RFU LOC730098 (11760151_x_at) / Fold change /veh LOC730098 (11760151_x_at) / RFU OR4N2 (11742367_at) / Fold change /veh OR4N2 (11742367_at) / RFU PRRT2 (11749266_a_at) / Fold change /veh PRRT2 (11749266_a_at) / RFU SNX32 (11753110_a_at) / Fold change /veh SNX32 (11753110_a_at) / RFU CDHR5 (11726645_a_at) / Fold change /veh CDHR5 (11726645_a_at) / RFU RCAN1 (11760418_a_at) / Fold change /veh RCAN1 (11760418_a_at) / RFU FAM167A (11723789_a_at) / Fold change /veh FAM167A (11723789_a_at) / RFU FAM26E (11764081_at) / Fold change /veh FAM26E (11764081_at) / RFU ISYNA1 (11749810_s_at) / Fold change /veh ISYNA1 (11749810_s_at) / RFU ACY1 (11761880_at) / Fold change /veh ACY1 (11761880_at) / RFU 11764098_at / Fold change /veh 11764098_at / RFU SAMD14 (11745864_x_at) / Fold change /veh SAMD14 (11745864_x_at) / RFU NPB (11741838_a_at) / Fold change /veh NPB (11741838_a_at) / RFU TMPRSS6 (11731388_a_at) / Fold change /veh TMPRSS6 (11731388_a_at) / RFU KRTAP10-2 (11738614_at) / Fold change /veh KRTAP10-2 (11738614_at) / RFU ARHGAP8 /// PRR5-ARHGAP8 (11727945_x_at) / Fold change /veh ARHGAP8 /// PRR5-ARHGAP8 (11727945_x_at) / RFU KRTAP5-7 /// NADSYN1 (11734609_at) / Fold change /veh KRTAP5-7 /// NADSYN1 (11734609_at) / RFU RASL12 (11751679_a_at) / Fold change /veh RASL12 (11751679_a_at) / RFU CDKN2B (11736163_a_at) / Fold change /veh CDKN2B (11736163_a_at) / RFU PRF1 (11729649_at) / Fold change /veh PRF1 (11729649_at) / RFU, ZNF638 /// ZNF638-IT1 / Fold change vs veh, ZNF638 /// ZNF638-IT1 / RFU, PANK3 / Fold change vs veh, PANK3 / RFU, SH3YL1 / Fold change vs veh, SH3YL1 / RFU, ZEB2 / Fold change vs veh, ZEB2 / RFU, NRIP1 / Fold change vs veh, NRIP1 / RFU, PTTG1IP / Fold change vs veh, PTTG1IP / RFU, CAPN2 / Fold change vs veh, CAPN2 / RFU, MED14 / Fold change vs veh, MED14 / RFU, SNORA58 / Fold change vs veh, SNORA58 / RFU, C1orf63 / Fold change vs veh, C1orf63 / RFU, LRRFIP1 / Fold change vs veh, LRRFIP1 / RFU, NDUFAF7 / Fold change vs veh, NDUFAF7 / RFU, SLC12A2 / Fold change vs veh, SLC12A2 / RFU, IBTK / Fold change vs veh, IBTK / RFU, ESF1 / Fold change vs veh, ESF1 / Fold change vs veh, TMEM50B / RFU, TAOK1 / Fold change vs veh, TAOK1 / RFU, ACBD3 / Fold change vs veh, ACBD3 / RFU, TMA16 / Fold change vs veh, TMA16 / RFU, RWDD3 / Fold change vs veh, RWDD3 / RFU, BCAT1 / Fold change vs veh, BCAT1 / RFU, EDEM3 / Fold change vs veh, EDEM3 / RFU, TMEM33 / Fold change vs veh, TMEM33 / RFU, WDR75 / Fold change vs veh, WDR75 / RFU, AHCTF1 / Fold change vs veh, AHCTF1 / RFU, TFRC / Fold change vs veh, TFRC / RFU, ZDHHC17 / Fold change vs veh, ZDHHC17 / RFU, NOM1 / Fold change vs veh, NOM1 / RFU, ARL8B / Fold change vs veh, ARL8B / RFU, ZBTB11 / Fold change vs veh, ZBTB11 / RFU, TAMM41 / Fold change vs veh, TAMM41 / RFU, KIAA1704 /// LOC100996395 / Fold change vs veh, KIAA1704 /// LOC100996395 / RFU, ING1 / Fold change vs veh, ING1 / RFU, TRMT61B / Fold change vs veh, TRMT61B / RFU, FUBP3 / Fold change vs veh, FUBP3 / RFU, TP53 / Fold change vs veh, TP53 / RFU, TNKS2 / Fold change vs veh, TNKS2 / RFU, ZFP14 / Fold change vs veh, ZFP14 / RFU, ACTR2 / Fold change vs veh, ACTR2 / RFU, PPP3R1 / Fold change vs veh, PPP3R1 / RFU, PIK3R1 / Fold change vs veh, PIK3R1 / RFU, HNRNPA1 / Fold change vs veh, HNRNPA1 / RFU, RNF170 / Fold change vs veh, RNF170 / RFU, ZNF28 / Fold change vs veh, ZNF28 / RFU, RNGTT / Fold change vs veh, RNGTT / RFU, OGT / Fold change vs veh, OGT / RFU, BRD1 / Fold change vs veh, BRD1 / RFU, MARS / Fold change vs veh, MARS / RFU, ZNF655 / Fold change vs veh, ZNF655 / RFU, FAHD1 / Fold change vs veh, FAHD1 / RFU, BDP1 / Fold change vs veh, BDP1 / RFU, LRRCC1 / Fold change vs veh, LRRCC1 / RFU, ARID1A / Fold change vs veh, ARID1A / RFU, ZNF146 / Fold change vs veh, ZNF146 / RFU, ZNF330 / Fold change vs veh, ZNF330 / RFU, GPN3 / Fold change vs veh, GPN3 / RFU, C9orf123 / Fold change vs veh, C9orf123 / RFU, N4BP2L2 / Fold change vs veh, N4BP2L2 / RFU, ARFIP1 / Fold change vs veh, ARFIP1 / RFU, FAM179B / Fold change vs veh, FAM179B / RFU, BCL10 / Fold change vs veh, BCL10 / RFU, UHRF1BP1L / Fold change vs veh, UHRF1BP1L / RFU, BET1 / Fold change vs veh, BET1 / RFU, CNOT2 / Fold change vs veh, CNOT2 / RFU, ZNF268 / Fold change vs veh, ZNF268 / Fold change vs veh, ZNF507 / RFU, DGCR2 / Fold change vs veh, DGCR2 / RFU, WDSUB1 / Fold change vs veh, WDSUB1 / Fold change vs veh, HSP90B1 /// MIR3652 / RFU, ADSS / Fold change vs veh, ADSS / RFU, GK / Fold change vs veh, GK / RFU, ZNF148 / Fold change vs veh, ZNF148 / RFU, TAF9 / Fold change vs veh, TAF9 / RFU, SLC1A5 / Fold change vs veh, SLC1A5 / RFU, SLMO2 / Fold change vs veh, SLMO2 / RFU, ABCC4 / Fold change vs veh, ABCC4 / RFU, LOC101060439 /// RAP1B / Fold change vs veh, LOC101060439 /// RAP1B / RFU, RFX7 / Fold change vs veh, RFX7 / RFU, GTPBP10 / Fold change vs veh, GTPBP10 / RFU, CNEP1R1 / Fold change vs veh, CNEP1R1 / RFU, BIVM-ERCC5 /// ERCC5 / Fold change vs veh, BIVM-ERCC5 /// ERCC5 / RFU, ILF3 / Fold change vs veh, ILF3 / RFU 11762660_at / Fold change /veh 11762660_at / RFU VCAN (11757783_s_at) / Fold change /veh VCAN (11757783_s_at) / RFU DDX43 (11728927_at) / Fold change /veh DDX43 (11728927_at) / RFU KRT8 (11758188_x_at) / Fold change /veh KRT8 (11758188_x_at) / RFU NKD1 (11759106_at) / Fold change /veh NKD1 (11759106_at) / RFU SRD5A1 (11742802_a_at) / Fold change /veh SRD5A1 (11742802_a_at) / RFU TPSAB1 /// TPSB2 (11721975_s_at) / Fold change /veh TPSAB1 /// TPSB2 (11721975_s_at) / RFU GSTM3 (11746129_a_at) / Fold change /veh GSTM3 (11746129_a_at) / RFU IL23R (11737362_x_at) / Fold change /veh IL23R (11737362_x_at) / RFU TMEM51 (11727254_a_at) / Fold change /veh TMEM51 (11727254_a_at) / RFU PIWIL2 (11732686_x_at) / Fold change /veh PIWIL2 (11732686_x_at) / RFU ORM1 (11744905_x_at) / Fold change /veh ORM1 (11744905_x_at) / RFU CCDC152 (11743942_at) / Fold change /veh CCDC152 (11743942_at) / RFU ECM1 (11717891_a_at) / Fold change /veh ECM1 (11717891_a_at) / RFU IL23R (11748794_a_at) / Fold change /veh IL23R (11748794_a_at) / RFU TNFAIP8L3 (11732012_x_at) / Fold change /veh TNFAIP8L3 (11732012_x_at) / RFU MBOAT4 (11741988_at) / Fold change /veh MBOAT4 (11741988_at) / RFU 11764193_at / Fold change /veh 11764193_at / RFU TMEM53 (11763286_at) / Fold change /veh TMEM53 (11763286_at) / RFU MAGEB2 (11727129_at) / Fold change /veh MAGEB2 (11727129_at) / RFU TMEM200A (11744735_a_at) / Fold change /veh TMEM200A (11744735_a_at) / RFU CCDC152 (11751479_a_at) / Fold change /veh CCDC152 (11751479_a_at) / RFU FAM211A (11726209_a_at) / Fold change /veh FAM211A (11726209_a_at) / RFU RGS16 (11746705_a_at) / Fold change /veh RGS16 (11746705_a_at) / RFU VCAN (11755009_s_at) / Fold change /veh VCAN (11755009_s_at) / RFU RHOB (11743442_s_at) / Fold change /veh RHOB (11743442_s_at) / RFU RGS16 (11720943_a_at) / Fold change /veh RGS16 (11720943_a_at) / RFU RGS16 (11720944_at) / Fold change /veh RGS16 (11720944_at) / RFU, VPS4B / Fold change vs veh, VPS4B / RFU, CREB1 / Fold change vs veh, CREB1 / RFU, DNAJC13 / Fold change vs veh, DNAJC13 / RFU, GNAQ / Fold change vs veh, GNAQ / RFU, CDK5R1 / Fold change vs veh, CDK5R1 / RFU, ZRANB3 / Fold change vs veh, ZRANB3 / RFU, CUL4A / Fold change vs veh, CUL4A / RFU, CCNY / Fold change vs veh, CCNY / RFU, UFL1 / Fold change vs veh, UFL1 / RFU, COG3 / Fold change vs veh, COG3 / RFU, DIAPH2 / Fold change vs veh, DIAPH2 / RFU, SKA2 / Fold change vs veh, SKA2 / RFU, AFF3 / Fold change vs veh, AFF3 / RFU, LMF1 / Fold change vs veh, LMF1 / RFU, IPO11 / Fold change vs veh, IPO11 / RFU, DFFB / Fold change vs veh, DFFB / RFU, FOXP1 / Fold change vs veh, FOXP1 / RFU, CARD8 / Fold change vs veh, CARD8 / RFU, STRN3 / Fold change vs veh, STRN3 / RFU, ADK / Fold change vs veh, ADK / RFU, RASSF2 / Fold change vs veh, RASSF2 / RFU, WIPF1 / Fold change vs veh, WIPF1 / RFU, LARP1B / Fold change vs veh, LARP1B / RFU, RASA1 / Fold change vs veh, RASA1 / RFU, RB1 / Fold change vs veh, RB1 / RFU, PPFIA1 / Fold change vs veh, PPFIA1 / RFU, MAT2A / Fold change vs veh, MAT2A / RFU, CCT5 / Fold change vs veh, CCT5 / RFU, WDR92 / Fold change vs veh, WDR92 / RFU, CUX1 / Fold change vs veh, CUX1 / RFU, TTC7A / Fold change vs veh, TTC7A / RFU, TMEM135 / Fold change vs veh, TMEM135 / RFU, DEPTOR / Fold change vs veh, DEPTOR / RFU, CPM / Fold change vs veh, CPM / RFU, DNAJB6 / Fold change vs veh, DNAJB6 / RFU, CACNA2D3 / Fold change vs veh, CACNA2D3 / RFU, DTX4 / Fold change vs veh, DTX4 / RFU, TFCP2 / Fold change vs veh, TFCP2 / RFU, GMCL1 /// GMCL1P1 / Fold change vs veh, GMCL1 /// GMCL1P1 / RFU, AEBP2 / Fold change vs veh, AEBP2 / RFU, SNHG1 /// SNORD22 /// SNORD25 /// SNORD26 /// SNORD27 /// SNORD28 /// SNORD29 /// SNORD31 / Fold change vs veh, SNHG1 /// SNORD22 /// SNORD25 /// SNORD26 /// SNORD27 /// SNORD28 /// SNORD29 /// SNORD31 / Fold change (Aza/veh), C12orf56 (ProbeSet 11735607_a_at) / Fold change (ACY-1035/veh), C12orf56 (ProbeSet 11735607_a_at) / Fold change (Aza/veh), FGFR1OP (ProbeSet 11751329_s_at) / Fold change (ACY-1035/veh), FGFR1OP (ProbeSet 11751329_s_at) / Fold change (Aza/veh), VPS36 (ProbeSet 11739960_a_at) / Fold change (ACY-1035/veh), VPS36 (ProbeSet 11739960_a_at) / RFU SYPL1 (11715823_x_at) / Fold change /veh SYPL1 (11715823_x_at) / RFU IGFBP7 (11715501_s_at) / Fold change /veh IGFBP7 (11715501_s_at) / RFU REEP3 (11722064_at) / Fold change /veh REEP3 (11722064_at) / RFU IGLL1 (11728026_x_at) / Fold change /veh IGLL1 (11728026_x_at): dose or concentration left out as unconfirmed
Conditions: ProbeSet 11732281_s_at; LIST D

Nc1ncn([C@@H]2O[C@H](CO)[C@@H](O)[C@H]2O)c(=O)n1 [azacitidine]
RFU, FOXP1: 174.32 RFU
